In experiment [1] the target is T1, Tyrosine-protein kinase ITK/TSK (Homo sapiens, UniProt Q08881).
T1 sequence (Q08881 whole entry): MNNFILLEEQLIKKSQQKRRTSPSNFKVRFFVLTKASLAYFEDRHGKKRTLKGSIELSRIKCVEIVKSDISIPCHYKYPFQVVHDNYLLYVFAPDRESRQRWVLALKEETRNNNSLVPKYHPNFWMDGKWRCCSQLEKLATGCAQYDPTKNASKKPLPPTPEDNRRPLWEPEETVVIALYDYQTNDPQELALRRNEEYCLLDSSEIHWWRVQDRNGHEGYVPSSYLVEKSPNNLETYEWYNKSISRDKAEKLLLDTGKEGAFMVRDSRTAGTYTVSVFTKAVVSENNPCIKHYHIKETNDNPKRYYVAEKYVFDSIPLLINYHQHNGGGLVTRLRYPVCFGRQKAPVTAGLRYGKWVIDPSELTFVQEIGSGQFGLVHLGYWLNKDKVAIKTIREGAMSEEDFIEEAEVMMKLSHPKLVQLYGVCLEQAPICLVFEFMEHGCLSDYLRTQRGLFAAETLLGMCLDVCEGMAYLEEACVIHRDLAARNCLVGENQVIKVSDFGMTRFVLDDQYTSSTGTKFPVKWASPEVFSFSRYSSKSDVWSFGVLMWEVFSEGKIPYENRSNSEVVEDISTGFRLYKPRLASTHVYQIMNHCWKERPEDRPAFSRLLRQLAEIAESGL

Experiment [2] deals with Tyrosine-protein kinase Lck (Homo sapiens, UniProt P06239).
Tyrosine-protein kinase Lck, sequence (P06239 whole entry): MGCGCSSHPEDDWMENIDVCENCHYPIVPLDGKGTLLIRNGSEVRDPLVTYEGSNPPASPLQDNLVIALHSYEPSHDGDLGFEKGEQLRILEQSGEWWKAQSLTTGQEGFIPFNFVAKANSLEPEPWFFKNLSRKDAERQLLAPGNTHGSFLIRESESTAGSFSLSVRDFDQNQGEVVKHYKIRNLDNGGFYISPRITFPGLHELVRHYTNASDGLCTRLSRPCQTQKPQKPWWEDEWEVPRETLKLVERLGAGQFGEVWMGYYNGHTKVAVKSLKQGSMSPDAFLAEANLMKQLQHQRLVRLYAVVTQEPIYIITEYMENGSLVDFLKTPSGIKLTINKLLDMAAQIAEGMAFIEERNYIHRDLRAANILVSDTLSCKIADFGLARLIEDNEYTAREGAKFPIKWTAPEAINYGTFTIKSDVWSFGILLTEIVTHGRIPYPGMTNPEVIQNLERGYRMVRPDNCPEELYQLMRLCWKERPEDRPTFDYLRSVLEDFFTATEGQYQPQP

By Ki is commonly meant the equilibrium dissociation constant of an inhibitor or competing ligand from its target. A higher Ki goes with weaker binding. Take `COc1cc(C)c(Sc2cnc(NC(=O)c3ccc(CNC(C)C(C)(C)C)cc3)s2)cc1C(=O)N1CCN(C(C)=O)CC1` (configuration not stated): the Ki in experiment [1] came out at 16 nM. In experiment [2], `Cc1cccc(Cl)c1NC(=O)c1ccc2nc(NC(=O)NC(C)(C)C)sc2c1` registered a Ki of 4 nM.

For the origin of these results see ChEMBL document CHEMBL1240298, “Features of selective kinase inhibitors” (Chem Biol, 2005).
